# Experimental data: patent publication US20160177395A1, “BIOMARKERS FOR THE PREDICTION OF RENAL INJURY” (priority 2007, published 2016)
# Values joined by “and” are separate entries in the source; they are usually repeats but may differ in a detail not shown here. Identical values can stand only once.
# Test system: kidney tissues of treated or untreated rats
# Experiment: Real-time qRT-PCR of signature amplicons, validation stage, labeled and un-labeled samples (Table 23)
# Conditions: for H31883_DB71_seg13 normalized qRT-PCR result / MUSCYCG1R_DB81_seg19-20 normalized qRT-PCR result / W41270_DB81_seg11 normalized qRT-PCR result: labeled sample, one line per animal
# Outline: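 Rat kidney RNA, labeled and un-labeled samples, run over seven plates; two amplicons per signature gene (wild-type and splice variant). Values normalized to housekeeping genes, then per plate and amplicon by geometric mean of ratios against a shuffled normalization plate (outliers removed), then scaled.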
# [1] = day1, female rat kidney, listed as CadCl
# [2] = day1, male rat kidney, listed as CadCl
# [3] = day5, female rat kidney, listed as CadCl
# [4] = day5, male rat kidney, listed as CadCl
# [5] = day28, female rat kidney, listed as CadCl
# [6] = day28, male rat kidney, listed as CadCl
# [7] = labeled samples, day1, kidney of individual male/female rats, listed as CadCl
# [8] = labeled samples, day5, kidney of individual male/female rats, listed as CadCl
# [9] = labeled samples, day28, kidney of individual male/female rats, listed as CadCl
# [10] = day1, female rat kidney, listed as Cis
# [11] = day1, male rat kidney, listed as Cis
# [12] = day28, female rat kidney, listed as Cis
# [13] = day28, male rat kidney, listed as Cis
# [14] = labeled samples, day1, kidney of individual male/female rats, listed as Cis
# [15] = labeled samples, day5, kidney of individual male/female rats, listed as Cis
# [16] = labeled samples, day28, kidney of individual male/female rats, listed as Cis
# [17] = labeled samples, day1, kidney of individual male/female rats
# [18] = labeled samples, day5, kidney of individual male/female rats
# [19] = labeled samples, day28, kidney of individual male/female rats
compound,measurement,setting,value
[Cl][Cd][Cl] [Cadmium chloride],H31883_DB71_seg13 normalized qRT-PCR result,[1],1.194 and 1.772 and 1.894
same,MUSCYCG1R_DB81_seg19-20 normalized qRT-PCR result,[1],1.133 and 1.64 and 1.263
same,W41270_DB81_seg11 normalized qRT-PCR result,[1],1.059 and 1.155 and 1.372
same,H31883_DB71_seg13 normalized qRT-PCR result,[2],1.034 and 1.027 and 0.957
same,MUSCYCG1R_DB81_seg19-20 normalized qRT-PCR result,[2],0.951 and 1.108 and 1.069
same,W41270_DB81_seg11 normalized qRT-PCR result,[2],1.499 and 1.622 and 1.512
same,H31883_DB71_seg13 normalized qRT-PCR result,[3],1.782 and 0.906
same,MUSCYCG1R_DB81_seg19-20 normalized qRT-PCR result,[3],1.866 and 0.805
same,W41270_DB81_seg11 normalized qRT-PCR result,[3],2.282 and 0.854
same,H31883_DB71_seg13 normalized qRT-PCR result,[4],1.104 and 1.157 and 1.671
same,MUSCYCG1R_DB81_seg19-20 normalized qRT-PCR result,[4],1.083 and 1.409 and 2.393
same,W41270_DB81_seg11 normalized qRT-PCR result,[4],1.337 and 1.662 and 1.675
same,H31883_DB71_seg13 normalized qRT-PCR result,[5],0.259 and 0.783 and 1.033
same,MUSCYCG1R_DB81_seg19-20 normalized qRT-PCR result,[5],0.728 and 0.975 and 1.58
same,W41270_DB81_seg11 normalized qRT-PCR result,[5],0.414 and 0.827 and 1.098
same,H31883_DB71_seg13 normalized qRT-PCR result,[6],0.531 and 0.817 and 0.633
same,MUSCYCG1R_DB81_seg19-20 normalized qRT-PCR result,[6],0.672 and 0.836 and 0.333
same,W41270_DB81_seg11 normalized qRT-PCR result,[6],0.781 and 1.107 and 0.807
same,H31883_DB71_seg13 normalized qRT-PCR expression (Cyclin-G1 (CCNG1) transcript),[7],0.919 and 1.005 and 1.446 and 1.239 and 1.632 and 1.143
same,MUSCYCG1R_DB81_seg19-20 normalized qRT-PCR expression,[7],1.224 and 1.097 and 2.129 and 2.276 and 1.856 and 3.981
same,"W41270_DB81_seg11 normalized qRT-PCR expression (tumor necrosis factor receptor superfamily, member 12a transcript)",[7],0.727 and 1.183 and 1.265 and 0.993 and 0.983 and 1
same,H31883_DB71_seg13 normalized qRT-PCR expression (Cyclin-G1 (CCNG1) transcript),[8],1.057 and 1.154 and 0.786 and 1.132 and 1.051
same,MUSCYCG1R_DB81_seg19-20 normalized qRT-PCR expression,[8],1.036 and 2.018 and 1.292 and 3.613 and 2.866
same,"W41270_DB81_seg11 normalized qRT-PCR expression (tumor necrosis factor receptor superfamily, member 12a transcript)",[8],1.067 and 2.101 and 1.109 and 0.769 and 1.211
same,H31883_DB71_seg13 normalized qRT-PCR expression (Cyclin-G1 (CCNG1) transcript),[9],0.785 and 0.652 and 0.712 and 0.681 and 0.849 and 0.578
same,MUSCYCG1R_DB81_seg19-20 normalized qRT-PCR expression,[9],0.769 and 1.356 and 1.068 and 0.68 and 2.128 and 0.932
same,"W41270_DB81_seg11 normalized qRT-PCR expression (tumor necrosis factor receptor superfamily, member 12a transcript)",[9],1.138 and 0.529 and 0.772 and 0.578 and 0.654 and 0.522
N.N.[Cl][Pt][Cl] [Cisplatin],H31883_DB71_seg13 normalized qRT-PCR result,[10],0.844 and 1.209 and 1.345
same,MUSCYCG1R_DB81_seg19-20 normalized qRT-PCR result,[10],0.631 and 0.788 and 0.899
same,W41270_DB81_seg11 normalized qRT-PCR result,[10],0.81 and 1.261 and 1.096
same,H31883_DB71_seg13 normalized qRT-PCR result,[11],0.799 and 1.09 and 0.902
same,MUSCYCG1R_DB81_seg19-20 normalized qRT-PCR result,[11],0.495 and 1.64 and 0.811
same,W41270_DB81_seg11 normalized qRT-PCR result,[11],0.815 and 2.455 and 1.176
same,H31883_DB71_seg13 normalized qRT-PCR result,[12],1.749 and 0.786 and 1.864
same,MUSCYCG1R_DB81_seg19-20 normalized qRT-PCR result,[12],2.301 and 1.555 and 3.336
same,W41270_DB81_seg11 normalized qRT-PCR result,[12],2.504 and 2.643 and 5.783
same,H31883_DB71_seg13 normalized qRT-PCR result,[13],1.587 and 0.786 and 1.371
same,MUSCYCG1R_DB81_seg19-20 normalized qRT-PCR result,[13],4.504 and 1.428 and 1.753
same,W41270_DB81_seg11 normalized qRT-PCR result,[13],5.917 and 3.371 and 3.008
same,H31883_DB71_seg13 normalized qRT-PCR expression (Cyclin-G1 (CCNG1) transcript),[14],0.668 and 0.853 and 1.416 and 2.092 and 2.559 and 1.134
same,MUSCYCG1R_DB81_seg19-20 normalized qRT-PCR expression,[14],0.806 and 1.514 and 1.492 and 3.259 and 2.003 and 1.277
same,"W41270_DB81_seg11 normalized qRT-PCR expression (tumor necrosis factor receptor superfamily, member 12a transcript)",[14],0.679 and 0.759 and 1.331 and 1.029 and 1.224 and 0.496
same,AI045075_DB71_seg6 normalized qRT-PCR expression (Interferon stimulated exonuclease 20 (ISG20) transcript),[15],1.804 and 1.683 and 4.298 and 1.503 and 0.93 and 1.09
same,H31883_DB71_seg13 normalized qRT-PCR expression (Cyclin-G1 (CCNG1) transcript),[15],3.816 and 5.526 and 3.771 and 1.509 and 1.642 and 2.695
same,MUSCYCG1R_DB81_seg19-20 normalized qRT-PCR expression,[15],2.034 and 4.156 and 4.947 and 0.981 and 3.172 and 1.643
same,"W41270_DB81_seg11 normalized qRT-PCR expression (tumor necrosis factor receptor superfamily, member 12a transcript)",[15],1.262 and 3.597 and 1.404 and 0.843 and 2.113 and 0.705
same,W64472_DB81_seg2 normalized qRT-PCR expression (Interferon stimulated exonuclease 20 (ISG20) transcript),[15],1.795 and 3.64 and 6.414 and 1.976 and 1.448 and 1.265
same,W83813_DB81_seg27 normalized qRT-PCR expression,[15],1.716 and 0.857 and 1.461 and 1.366 and 0.758 and 1.265
same,H31883_DB71_seg13 normalized qRT-PCR expression (Cyclin-G1 (CCNG1) transcript),[16],4.41 and 2.839 and 2.398 and 2.653 and 5.592 and 3.563
same,MUSCYCG1R_DB81_seg19-20 normalized qRT-PCR expression,[16],3.509 and 3.443 and 1.813 and 3.094 and 7.02 and 3.473
same,"W41270_DB81_seg11 normalized qRT-PCR expression (tumor necrosis factor receptor superfamily, member 12a transcript)",[16],4.741 and 4.104 and 2.053 and 1.904 and 4.516 and 3.866
Gentamycin,H31883_DB71_seg13 normalized qRT-PCR result,"day1, female rat kidney",0.963 and 0.98 and 0.898
same,MUSCYCG1R_DB81_seg19-20 normalized qRT-PCR result,"day1, female rat kidney",1.251 and 0.889 and 2.053
same,W41270_DB81_seg11 normalized qRT-PCR result,"day1, female rat kidney",0.763 and 0.963 and 1.408
same,H31883_DB71_seg13 normalized qRT-PCR result,"day1, male rat kidney",1.02 and 1.409 and 1.161
same,MUSCYCG1R_DB81_seg19-20 normalized qRT-PCR result,"day1, male rat kidney",1.072 and 1.848 and 1.221
same,W41270_DB81_seg11 normalized qRT-PCR result,"day1, male rat kidney",1.567 and 1.869 and 1.48
same,H31883_DB71_seg13 normalized qRT-PCR result,"day28, female rat kidney",0.421 and 0.441 and 0.434
same,MUSCYCG1R_DB81_seg19-20 normalized qRT-PCR result,"day28, female rat kidney",0.967 and 2.632 and 1.78
same,W41270_DB81_seg11 normalized qRT-PCR result,"day28, female rat kidney",0.806 and 1.079 and 1.164
same,H31883_DB71_seg13 normalized qRT-PCR result,"day28, male rat kidney",0.852 and 0.857 and 0.756
same,MUSCYCG1R_DB81_seg19-20 normalized qRT-PCR result,"day28, male rat kidney",1.734 and 3.06 and 1.469
same,W41270_DB81_seg11 normalized qRT-PCR result,"day28, male rat kidney",1.55 and 1.353 and 1.245
same,H31883_DB71_seg13 normalized qRT-PCR expression (Cyclin-G1 (CCNG1) transcript),[17],0.772 and 1.118 and 0.987 and 1.115 and 0.84 and 1.053
same,MUSCYCG1R_DB81_seg19-20 normalized qRT-PCR expression,[17],0.842 and 1.155 and 1.361 and 2.011 and 1.387 and 2.861
same,"W41270_DB81_seg11 normalized qRT-PCR expression (tumor necrosis factor receptor superfamily, member 12a transcript)",[17],1.361 and 1.037 and 0.904 and 1.08 and 2.078 and 0.85
same,"Label: true label (Normal/Toxic), known renal toxic effect","labeled samples, day5",Toxic
same,AI045075_DB71_seg6 normalized qRT-PCR expression (Interferon stimulated exonuclease 20 (ISG20) transcript),[18],1.337 and 1.374 and 1.402 and 1.778 and 1.636 and 1.256
same,H31883_DB71_seg13 normalized qRT-PCR expression (Cyclin-G1 (CCNG1) transcript),[18],0.948 and 1.09 and 0.78 and 1.142 and 1.402 and 1.515
same,MUSCYCG1R_DB81_seg19-20 normalized qRT-PCR expression,[18],1.085 and 0.993 and 0.955 and 1.442 and 1.842 and 1.644
same,"W41270_DB81_seg11 normalized qRT-PCR expression (tumor necrosis factor receptor superfamily, member 12a transcript)",[18],0.983 and 0.954 and 1.104 and 1.699 and 0.82 and 2.64
same,W64472_DB81_seg2 normalized qRT-PCR expression (Interferon stimulated exonuclease 20 (ISG20) transcript),[18],1.733 and 2.048 and 1.962 and 1.427 and 1.403 and 1.53
same,W83813_DB81_seg27 normalized qRT-PCR expression,[18],1.688 and 1.042 and 0.702 and 1.441 and 1.395 and 0.76
same,H31883_DB71_seg13 normalized qRT-PCR expression (Cyclin-G1 (CCNG1) transcript),[19],0.853 and 0.861 and 0.553 and 0.817 and 0.554 and 0.842
same,MUSCYCG1R_DB81_seg19-20 normalized qRT-PCR expression,[19],0.863 and 1.072 and 0.617 and 0.865 and 0.729 and 1.661
same,"W41270_DB81_seg11 normalized qRT-PCR expression (tumor necrosis factor receptor superfamily, member 12a transcript)",[19],1.614 and 1.342 and 1.315 and 1.194 and 1.188 and 1.941
